US5527796A, “Thienothiazine derivatives and their use” (Chemisch Pharmazeutische Forschungsgesellschaft m.b.H., priority 1992, dated 1996)

How the values were obtained:
[1] = target: T1, 5-lipoxygenase (Rattus norvegicus, UniProt P12527); experiment: formation of LTB4 by neutrophils as a measure for 5-lipoxygenase activity (A23187-stimulated, RIA); type: cell-based, Male Sprague Dawley rats; settings: A23187 2 μmol/l, 5 min at 37° C.
T1 construct: neutrophils harvested by aspiration; endogenous in cells; host or cells: peritoneal neutrophils of male Sprague Dawley rats, harvested 16 h after intraperitoneal carrageenan
T1 sequence (P12527 1-673): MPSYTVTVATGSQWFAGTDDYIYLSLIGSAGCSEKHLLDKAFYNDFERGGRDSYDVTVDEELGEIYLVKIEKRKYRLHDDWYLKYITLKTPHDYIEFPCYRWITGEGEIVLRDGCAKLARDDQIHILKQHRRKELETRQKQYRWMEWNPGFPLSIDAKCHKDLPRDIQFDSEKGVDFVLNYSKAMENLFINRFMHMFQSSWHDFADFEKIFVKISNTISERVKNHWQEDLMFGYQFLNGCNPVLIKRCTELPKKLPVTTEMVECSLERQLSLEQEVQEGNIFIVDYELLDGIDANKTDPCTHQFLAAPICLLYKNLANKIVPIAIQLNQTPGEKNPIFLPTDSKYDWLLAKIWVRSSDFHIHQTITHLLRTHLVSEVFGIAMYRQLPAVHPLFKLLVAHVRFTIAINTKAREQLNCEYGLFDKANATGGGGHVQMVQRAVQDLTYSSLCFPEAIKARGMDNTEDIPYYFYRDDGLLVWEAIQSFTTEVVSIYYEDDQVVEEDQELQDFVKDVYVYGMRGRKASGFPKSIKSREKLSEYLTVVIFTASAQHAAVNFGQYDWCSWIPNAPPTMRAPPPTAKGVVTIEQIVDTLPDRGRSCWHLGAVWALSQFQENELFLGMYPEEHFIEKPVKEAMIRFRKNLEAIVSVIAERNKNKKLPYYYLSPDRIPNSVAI
Experimental: (§1) The formation of PGD2 by neutrophils was used as a measure for cyclooxygenase activity and the formation of LTB4 was used as a measure for 5-lipoxygenase activity.
(§2) Male Sprague Dawley rats (250-300 g) were injected with lambda carrageenan 1 mg intraperitoneally (dissolved in 0.5 ml dest.water) per animal. After 16 hours the rats were killed by exposure to diethylether. 15 ml ice cold Hanks balanced salt solution were injected i.p., neutrophils harvested by aspiration (10 ml), centrifuged (5 min, 100 g, 4° C.), the supernatant decanted and cells resuspended in HBSS at 4° C. to 5×10^6 cells/mi. 400 μl cell suspension (2×10^6 cells), 0.5 μl drugs dissolved in DMSO and 49.5 μl HBSS were incubated for 5 min at 37° C. Then 50 μl A23187 (2 μmol/l final conc.) were added followed by 5 min incubation at 37° C. The reaction was stopped by centrifugation for 30 s at 10000 g and the supernatant transferred to precooled plastic tubes and kept in an ice bath for max. 1 hour before starting RIA. PGD2 and LTB4 in the samples were measured after appropriate dilution with HBSS using commercial RIA kits.
(§3) Using the above mentioned methods the new compounds were tested. The inhibition of cyclooxygenase and of 5-lipoxygenase was measured.

[2] = tested on: cyclooxygenase; experiment: formation of PGD2 by neutrophils as a measure for cyclooxygenase activity (A23187-stimulated, RIA); type: cell-based, Male Sprague Dawley rats; settings: for IC50: rat neutrophils, A23187 2 μmol/l, 5 min at 37° C., RIA of PGD2
Experimental: as §1, §2, §3

| SMILES | IC50 [1] [µM] | inhibition of cyclooxygenase (in words) ([2]; PGD2 formation) | IC50 [2] [nM] |
| --- | --- | --- | --- |
| CN1C(C(=O)Nc2ccccn2)=C(O)c2sc(Cl)cc2S1(=O)=O [Compound A, 6-chloro-4-hydroxy-2-methylo-N-(2-pyridyl)-2h-thieno[2,3-e]-1,2-thiazine-3-carboxamide-1,1-dioxide, reference compound] | > 10 | inhibited only cyclooxygenase | 20 |
| CN1C(C(=O)Nc2cccc(CCc3ccccc3)n2)=C(O)c2sc(Cl)cc2S1(=O)=O [Example 4, 6-Chloro-4-hydroxy-2-methyl-N-[6-(2-phenylethyl)-2-pyridyl]-2H-thieno[2,3-e]-1,2-thiazine-3-carboxamide-1,1-dioxide] | 2.7 |  | 190 |
| CN1C(C(=O)Nc2cccc(C#Cc3ccccc3)n2)=C(O)c2sc(Cl)cc2S1(=O)=O [Example 7, 6-Chloro-4-hydroxy-2-methyl-N-[6-phenylethinyl]-2-pyridyl-2H-thieno[2,3-e]-1,2-thiazin-3-carbox-amide-1,1,-dioxide] | 3.7 |  | 410 |
| CN1C(C(=O)Nc2cccc(CCCc3ccccc3)n2)=C(O)c2sc(Cl)cc2S1(=O)=O [Example 8, 6-Chloro-4-hydroxy-2-methyl-N-[6-(3-phenylpropyl)]-2-pyridyl-2H-thieno[2,3-e]-1,2-thiazin-3-carbox-amide-1,1,-dioxide] | 4.2 |  | 510 |
| CN1C(C(=O)Nc2cccc(CCCCc3ccccc3)n2)=C(O)c2sc(Cl)cc2S1(=O)=O [Example 9, 6-Chloro-4-hydroxy-2-methyl-N-[6-(4-phenylbutyl)]-2-pyridyl-2H-thieno[2,3-e]-1,2-thiazin-3-carbox-amide-1,1,-dioxide] | 1.9 |  | 750 |
| CN1C(C(=O)Nc2cccc(COc3ccc(F)cc3)n2)=C(O)c2sc(Cl)cc2S1(=O)=O [Example 10, 6-Chloro-4-hydroxy-2-methyl-N-[6-(4-fluorphenoxy-methyl)]-2-pyridyl-2H-thieno[2,3-e]-1,2-thiazin-3-carboxamide-1,1,-dioxide] | 4.8 |  | 450 |
| CN1C(C(=O)Nc2cccc(COc3ccccc3)n2)=C(O)c2sc(Cl)cc2S1(=O)=O [Example 11] | 7.3 |  | 120 |
| CN1C(C(=O)Nc2cccc(-c3cc4ccccc4o3)n2)=C(O)c2sc(Cl)cc2S1(=O)=O [Example 12, 6-Chloro-4-hydroxy-2-methyl-N-[6-(2-benzo(b)furyl)]-2-pyridyl-2H-thieno[2,3-e]-1,2-thiazin-3-carbox-amide-1,1,-diol] | 2 |  | 16 |
| CN1C(C(=O)Nc2cccc(OCc3ccccc3)n2)=C(O)c2sc(Cl)cc2S1(=O)=O [Example 13, 6-Chloro-4-hydroxy-2-methyl-N-[6-phenylmethoxy]-2-pyridyl-2H-thieno[2,3-e]-1,2-thiazin-3-carbox-amide-1,1,-dioxide] | 5.1 |  | 150 |
| CN1C(C(=O)Nc2cccc(/C=C/c3ccccc3)n2)=C(O)c2sc(Cl)cc2S1(=O)=O [Example 14, 6-Chloro-4-hydroxy-2-methyl-N-[6-((E)-2-phenylethenyl)]-2-pyridyl-2H-thieno[2,3-e]-1,2-thiazin-3-carbox-amide-1,1,-dioxide] | 4.3 |  | 180 |
| CN1C(C(=O)Nc2cccc(OCc3ccc4ccccc4n3)n2)=C(O)c2sc(Cl)cc2S1(=O)=O [Example 17, 6-Chloro-4-hydroxy-2-methyl-N-[6-quinalinylmethoxy]-2-pyridyl-2H-thieno[2,3-e]-1,2-thiazin-3-carbox-amide-1,1,-dioxide] | 2 |  | 660 |
| CN1C(C(=O)Nc2cccc(OCc3cc4ccccc4s3)n2)=C(O)c2sc(Cl)cc2S1(=O)=O [Example 20] | 3.2 |  | 350 |
